Data from patent US20090156646A1, “PYRIDYLPHENOL COMPOUND AND USE THEREOF” (TAKEDA PHARMACEUTICAL COMPANY LIMITED, priority 2005, published 2009).

Experiments:
[1] = molecular target: T1, human metastin receptor hOT7T175 (Homo sapiens, UniProt Q969F8, L364H); experiment: binding inhibiting activity: 125I-metastin (40-54) binding to cell membrane fraction of h175 KB34 cells; details: room temperature 60 minutes, read-out: binding inhibiting activity, represented by the IC50 value
T1 construct: encoding the entire length of human metastin receptor hOT7T175; expressed in transfected cells; host or cells: CHO/dhFr- cells (ATCC #CRL-9096) stably transfected with pAKKO-hOT7T175; clone h175-16 was used as whole cells for FLIPR
T1 sequence (Q969F8 whole entry L364H): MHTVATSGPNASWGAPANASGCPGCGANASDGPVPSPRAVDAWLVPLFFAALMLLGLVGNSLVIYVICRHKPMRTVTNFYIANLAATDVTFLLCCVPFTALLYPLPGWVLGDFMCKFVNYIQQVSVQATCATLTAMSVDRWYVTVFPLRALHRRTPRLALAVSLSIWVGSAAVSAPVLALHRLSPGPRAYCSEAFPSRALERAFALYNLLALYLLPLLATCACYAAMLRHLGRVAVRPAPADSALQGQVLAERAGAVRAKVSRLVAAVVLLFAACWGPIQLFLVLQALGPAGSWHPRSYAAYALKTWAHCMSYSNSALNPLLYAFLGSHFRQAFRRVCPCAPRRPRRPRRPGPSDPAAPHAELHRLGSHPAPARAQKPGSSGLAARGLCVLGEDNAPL
Outline: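 The assay buffer (pH 7.4 Tris with magnesium acetate, EGTA and a protease-inhibitor cocktail) was used either plain or supplemented with 1 mg/ml BSA. The radioligand was 125I-labelled human metastin (40-54). The receptor source was a 250-fold diluted membrane fraction of the stable CHO/dhfr− line h175 KB34.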

| SMILES | melting point [°C] | IC50 [1] [µM] |
| --- | --- | --- |
| N#Cc1c(-c2cccc(CNC(=N)N)c2)cc(-c2ccccc2O)nc1NC(=O)c1cccs1.O=C(O)C(F)(F)F [Example 45, N-{4-[3-({[amino(imino)methyl]amino}methyl)phenyl]-3-cyano-6-(2-hydroxyphenyl)pyridin-2-yl}thiophene-2-carboxamide trifluoroacetate] | 144 to 151 | ≤ 10 |
| Cc1ccc(-c2cc(-c3cccc(NC(=O)CCN)c3)c(C#N)c(NC(=O)c3cccs3)n2)c(O)c1.Cl [Example 57, N-{4-[3-(β-alanylamino)phenyl]-3-cyano-6-(2-hydroxy-4-methylphenyl)pyridin-2-yl}thiophene-2-carboxamide hydrochloride] | 204 to 210 | ≤ 10 |
| Cl.N#Cc1c(-c2cccc(NC(=O)CCN)c2)cc(-c2ccc(Br)cc2O)nc1NC(=O)c1cccs1 [Example 61, N-{4-[3-(β-alanylamino)phenyl]-6-(4-bromo-2-hydroxyphenyl)-3-cyanopyridin-2-yl}thiophene-2-carboxamide hydrochloride] | 203 to 211 | ≤ 10 |
| Cl.N#Cc1c(-c2cccc(NC(=O)CCN)c2)cc(-c2ccc(C(F)(F)F)cc2O)nc1NC(=O)c1cccs1 [Example 64, N-{4-[3-(β-alanylamino)phenyl]-3-cyano-6-[2-hydroxy-4-(trifluoromethyl)phenyl]pyridin-2-yl}thiophene-2-carboxamide hydrochloride] | 209 to 216 | ≤ 10 |
| Cl.N#Cc1c(-c2cccc(C(=O)NCCCn3ccnc3)c2)cc(-c2ccc(F)cc2O)nc1NC(=O)c1ccco1 [Example 67, N-{3-cyano-6-(4-fluoro-2-hydroxyphenyl)-4-[3-({[3-(1H-imidazole-1-yl)propyl]amino}carbonyl)phenyl]pyridin-2-yl}-2-furamide hydrochloride] | 173 to 174 | ≤ 10 |
| COc1ccccc1C(=O)Nc1nc(-c2ccc(Cl)cc2O)cc(-c2cccc(C(=O)NCCCn3ccnc3)c2)c1C#N.Cl [Example 70, N-{6-(4-chloro-2-hydroxyphenyl)-3-cyano-4-[3-({[3-(1H-imidazole-1-yl)propyl]amino}carbonyl)phenyl]pyridin-2-yl}-2-methoxybenzamide hydrochloride] | 234 to 237 | ≤ 10 |
| COc1ccccc1C(=O)Nc1nc(-c2ccc(Cl)cc2O)cc(-c2cccc(C(=O)NCC3CCCCN3)c2)c1C#N.Cl (centres unmarked) [Example 71, N-[6-(4-chloro-2-hydroxyphenyl)-3-cyano-4-(3-{[(piperidine-2-ylmethyl)amino]carbonyl}phenyl)pyridin-2-yl]-2-methoxybenzamide hydrochloride] | 210 to 217 | ≤ 10 |
| Cl.N#Cc1c(-c2cccc(C(=O)NC3CCNC3)c2)cc(-c2ccc(F)cc2O)nc1NC(=O)c1ccco1 (centres unmarked) [Example 76, N-(3-cyano-6-(4-fluoro-2-hydroxyphenyl)-4-{3-[(pyrrolidin-3-ylamino)carbonyl]phenyl}pyridin-2-yl)-2-furamide hydrochloride] | 225 to 226 | ≤ 10 |
| Cl.N#Cc1c(-c2cccc(C(=O)NCCCn3ccnc3)c2)cc(-c2ccc(F)cc2O)nc1NC(=O)c1cccs1 [Example 78, N-{3-cyano-6-(4-fluoro-2-hydroxyphenyl)-4-[3-({[3-(1H-imidazole-1-yl)propyl]amino}carbonyl)phenyl]pyridin-2-yl}thiophene-2-carboxamide hydrochloride] | 195 to 196 | ≤ 10 |
| Cl.N#Cc1c(-c2cccc(C(=O)NC3CCNC3)c2)cc(-c2ccc(F)cc2O)nc1NC(=O)c1cccs1 (centres unmarked) [Example 79, N-(3-cyano-6-(4-fluoro-2-hydroxyphenyl)-4-{3-[(pyrrolidine-3-ylamino)carbonyl]phenyl}pyridin-2-yl)thiophene-2-carboxamide hydrochloride] | 240 to 241 | ≤ 10 |
| CC(C)(CN)CNC(=O)c1cccc(-c2cc(-c3ccc(F)cc3O)nc(NC(=O)c3cccs3)c2C#N)c1.Cl [Example 80, N-[4-(3-{[(3-amino-2,2-dimethylpropyl)amino]carbonyl}phenyl)-3-cyano-6-(4-fluoro-2-hydroxyphenyl)pyridin-2-yl]thiophene-2-carboxamide hydrochloride] | 265 to 268 | ≤ 10 |
| Cl.N#Cc1c(-c2cccc(NC(=O)Cn3ccnc3)c2)cc(-c2ccc(Cl)cc2O)nc1NC(=O)c1ccco1 [Example 239, N-(6-(4-chloro-2-hydroxyphenyl)-3-cyano-4-{3-[(1H-imidazole-1-ylacetyl)amino]phenyl}pyridin-2-yl)-2-furamide hydrochloride] | 188 to 194 | ≤ 10 |

Second part, the molecule after the results:

| melting point [°C] | IC50 [1] [µM] | SMILES |
| --- | --- | --- |
| 206 to 212 | ≤ 10 | Cl.N#Cc1c(-c2cccc(NC(=O)CCN)c2)cc(-c2ccc(Cl)cc2O)nc1NC(=O)c1ccco1 [Example 63, N-{4-[3-(β-alanylamino)phenyl]-6-(4-chloro-2-hydroxyphenyl)-3-cyanopyridin-2-yl}-2-furamide hydrochloride] |
| 195 to 200 | ≤ 10 | Cl.N#Cc1c(-c2cccc(NC(=O)C3(N)CCC3)c2)cc(-c2ccc(Cl)cc2O)nc1NC(=O)c1ccco1 [Example 65, N-[4-(3-{[(1-aminocyclobutyl)carbonyl]amino}phenyl)-6-(4-chloro-2-hydroxyphenyl)-3-cyanopyridin-2-yl]-2-furamide hydrochloride] |
| 269 to 270 | ≤ 10 | Cl.N#Cc1c(-c2cccc(NC(=O)CCN)c2)cc(-c2ccc(F)cc2O)nc1NC(=O)c1ccco1 [Example 68, N-{4-[3-(β-alanylamino)phenyl]-3-cyano-6-(4-fluoro-2-hydroxyphenyl)pyridin-2-yl}-2-furamide hydrochloride] |
| 190 to 196 | ≤ 10 | Cl.N#Cc1c(-c2cccc(NC(=O)C3(N)CC3)c2)cc(-c2ccc(Cl)cc2O)nc1NC(=O)c1ccco1 [Example 69, N-[4-(3-{[(1-aminocyclopropyl)carbonyl]amino}phenyl)-6-(4-chloro-2-hydroxyphenyl)-3-cyanopyridin-2-yl]-2-furamide hydrochloride] |
| 256 to 257 | ≤ 10 | CC(C)(CN)CNC(=O)c1cccc(-c2cc(-c3ccc(F)cc3O)nc(NC(=O)c3ccco3)c2C#N)c1.Cl [Example 77, N-[4-(3-{[(3-amino-2,2-dimethylpropyl)amino]carbonyl}phenyl)-3-cyano-6-(4-fluoro-2-hydroxyphenyl)pyridin-2-yl]-2-furamide hydrochloride] |
| 228 to 229 | ≤ 10 | Cl.N#Cc1c(-c2cccc(C(=O)NCCN)c2)cc(-c2ccc(F)cc2O)nc1NC(=O)c1cccs1 [Example 81, N-[4-(3-{[(2-aminoethyl)amino]carbonyl}phenyl)-3-cyano-6-(4-fluoro-2-hydroxyphenyl)pyridin-2-yl]thiophene-2-carboxamide hydrochloride] |
| 182 to 184 | ≤ 10 | Cl.N#Cc1c(-c2cccc(C(=O)NCCCn3ccnc3)c2)cc(-c2ccc(Cl)cc2O)nc1NC(=O)c1ccco1 [Example 83, N-{6-(4-chloro-2-hydroxyphenyl)-3-cyano-4-[3-({[3-(1H-imidazol-1-yl)propyl]amino}carbonyl)phenyl]pyridin-2-yl}-2-furamide hydrochloride] |
| 222 to 226 | ≤ 10 | Cl.N#Cc1c(-c2cccc(C(=O)NCC3CCCCN3)c2)cc(-c2ccc(Cl)cc2O)nc1NC(=O)c1ccco1 (centres unmarked) [Example 84, N-[6-(4-chloro-2-hydroxyphenyl)-3-cyano-4-(3-{[(piperidin-2-ylmethyl)amino]carbonyl}phenyl)pyridin-2-yl]-2-furamide hydrochloride] |
| 241 to 244 | ≤ 10 | CC(C)(CN)CNC(=O)c1cccc(-c2cc(-c3ccc(Cl)cc3O)nc(NC(=O)c3ccco3)c2C#N)c1.Cl [Example 85, N-[4-(3-{[(3-amino-2,2-dimethylpropyl)amino]carbonyl}phenyl)-6-(4-chloro-2-hydroxyphenyl)-3-cyanopyridin-2-yl]-2-furamide hydrochloride] |
| 252 to 255 | ≤ 10 | Cl.N#Cc1c(-c2cccc(C(=O)NCCN)c2)cc(-c2ccc(Cl)cc2O)nc1NC(=O)c1ccco1 [Example 86, N-[4-(3-{[(2-aminoethyl)amino]carbonyl}phenyl)-6-(4-chloro-2-hydroxyphenyl)-3-cyanopyridin-2-yl]-2-furamide hydrochloride] |
| 210 to 216 | ≤ 10 | C[C@@H](N)C(=O)Nc1cccc(-c2cc(-c3ccc(Cl)cc3O)nc(NC(=O)c3ccco3)c2C#N)c1.Cl [Example 237, N-[4-[3-(alanylamino)phenyl]-6-(4-chloro-2-hydroxyphenyl)-3-cyanopyridin-2-yl]-2-furamide hydrochloride] |
| 206 to 214 | ≤ 10 | CC(N)CC(=O)Nc1cccc(-c2cc(-c3ccc(Cl)cc3O)nc(NC(=O)c3ccco3)c2C#N)c1.Cl (centres unmarked) [Example 238, N-[4-{3-[(3-aminobutanoyl)amino]phenyl}-6-(4-chloro-2-hydroxyphenyl)-3-cyanopyridin-2-yl]-2-furamide hydrochloride] |
| 207 to 210 | ≤ 10 | C[C@H](N)C(=O)Nc1cccc(-c2cc(-c3ccc(Cl)cc3O)nc(NC(=O)c3ccco3)c2C#N)c1.Cl [Example 240, N-[4-[3-(L-alanylamino)phenyl]-6-(4-chloro-2-hydroxyphenyl)-3-cyanopyridin-2-yl]-2-furamide hydrochloride] |
